Drawing on PMC6128596, “Cyclooxygenase pathway mediates the inhibition of Na-glutamine co-transporter B0AT1 in rabbit villus cells during chronic intestinal inflammation” (PLoS ONE, 2018), this text covers Km for one molecule.

This test relates to T1, B0AT1.
T1 construct: gene SLC6A19; native full-length transporter in brush border membrane vesicles from rabbit ileal villus cells; not purified
The experiment in a line: Na-dependent [3H]glutamine uptake into villus BBMV, […] s, rapid filtration. Type of test: biochemical, Oryctolagus cuniculus. The following applies: control (normal) rabbits; 0.2-100 mM glutamine; 100 mM NaCl versus choline chloride; pH 7.5; 3H-glutamine tracer.

In the case of `NC(=O)CC[C@H](N)C(=O)O` [glutamine], the Km (usually the substrate concentration at which the rate is half of its maximum) was 24.6 ± 1.8 mM.
